{"source": "ChEMBL document CHEMBL1201862", "about": "“PubChem BioAssay data set” (2004)", "key": {"[1]": {"experiment": "blockade of melanocortin 4 receptor signaling – cell-based, plate reader, cherry pick, counter-screen for LGR2 antagonist project, dose response (AID 743444);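 also: transfected HEK 293 cells stimulated with alpha-MSH peptide; potency of inhibitors of the alpha-MSH evoked signal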", "format": "functional"}, "[2]": {"test_system": "HEK293", "experiment": "EBV LMP1 TES2 canonical NF-kB signalling blockers – cell-based, HEK293, luciferase, cherry-pick, dose response (AID 588343)", "format": "functional", "conditions": "Homo sapiens"}, "[3]": {"experiment": "A549 cell cytotoxicity, dose response, cytotoxicity control, plate reader, cherry-pick, antagonist series (AID 743412)", "format": "functional, cell-based"}, "[4]": {"experiment": "blockers of bursicon-stimulated LGR2 cAMP reporter – cell-based, HEK293, CRE-luciferase reporter, cherry pick, set 2, dose response (AID 743343);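 also: transfected cells were stimulated with diluted bursicon conditioned medium after compound addition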", "format": "functional"}, "[5]": {"target": "T1, Kappa-type opioid receptor (Homo sapiens, UniProt P41145)", "T1 sequence (P41145 whole entry)": "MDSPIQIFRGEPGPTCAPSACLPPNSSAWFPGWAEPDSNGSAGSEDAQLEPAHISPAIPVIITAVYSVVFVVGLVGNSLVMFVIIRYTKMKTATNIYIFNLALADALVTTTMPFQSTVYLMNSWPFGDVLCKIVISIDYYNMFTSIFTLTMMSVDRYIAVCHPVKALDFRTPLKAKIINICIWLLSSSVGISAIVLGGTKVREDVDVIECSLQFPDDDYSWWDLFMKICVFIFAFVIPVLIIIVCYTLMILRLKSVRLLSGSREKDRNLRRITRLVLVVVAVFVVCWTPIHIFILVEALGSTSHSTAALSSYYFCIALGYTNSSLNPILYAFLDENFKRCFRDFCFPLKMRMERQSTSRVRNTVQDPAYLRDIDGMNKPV", "format": "functional"}, "[6]": {"experiment": "fluconazole-exposed Candida albicans growth modulators – fluorescence, retest, confirmation (AID 2467)", "format": "functional, cell-based"}, "[7]": {"target": "Heat shock protein HSP 90-alpha (Homo sapiens, UniProt P07900)", "format": "functional, organism-based"}, "[8]": {"target": "ATP-dependent molecular chaperone HSP82 (Candida albicans (strain WO-1) (Yeast), UniProt C4YTQ8)", "sequence (C4YTQ8 whole entry)": "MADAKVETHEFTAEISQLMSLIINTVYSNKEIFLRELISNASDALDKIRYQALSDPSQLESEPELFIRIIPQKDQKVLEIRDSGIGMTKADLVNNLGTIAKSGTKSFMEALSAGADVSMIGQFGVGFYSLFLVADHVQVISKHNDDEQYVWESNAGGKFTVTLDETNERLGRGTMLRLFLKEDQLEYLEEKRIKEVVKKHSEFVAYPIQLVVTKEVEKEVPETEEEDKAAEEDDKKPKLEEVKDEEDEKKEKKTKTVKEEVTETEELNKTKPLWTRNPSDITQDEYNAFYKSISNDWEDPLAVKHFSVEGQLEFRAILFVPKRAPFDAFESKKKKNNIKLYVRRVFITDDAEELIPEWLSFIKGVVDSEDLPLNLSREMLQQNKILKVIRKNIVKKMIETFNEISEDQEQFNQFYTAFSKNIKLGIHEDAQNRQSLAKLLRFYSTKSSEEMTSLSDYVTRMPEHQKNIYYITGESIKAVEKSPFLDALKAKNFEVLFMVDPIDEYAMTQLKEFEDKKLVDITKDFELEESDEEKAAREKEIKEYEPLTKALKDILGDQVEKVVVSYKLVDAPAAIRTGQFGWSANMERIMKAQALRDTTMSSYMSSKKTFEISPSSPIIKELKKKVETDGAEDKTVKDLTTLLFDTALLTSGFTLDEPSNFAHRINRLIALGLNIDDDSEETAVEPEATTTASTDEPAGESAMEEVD", "experiment": "steroid-induced GRE reporter decrease in yeast – S. cerevisiae, luminescence, Hsp90 inhibitor project, dose response (AID 2400);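 also: beta-galactosidase luminescence from glucocorticoid response element reporter as proxy for Hsp90 function; inhibitor potency where signal loss means Hsp90 inhibition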", "format": "functional, cell-based"}, "[9]": {"experiment": "NIH-3T3 fibroblast cytotoxicity, dose response, cytotoxicity control, cell-based, fluorescence, Alamar Blue, secondary assay (AID 2327);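 also: NIH-3T3 mouse fibroblasts cultured with fluconazole at 8 µg/mL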", "format": "functional"}, "[10]": {"target": "T2, Serine/threonine-protein phosphatase (Candida dubliniensis (strain CD36 / CBS 7987 / NCPF 3949 / NRRLY-17841) (Yeast), UniProt B9W6M3)", "T2 sequence (B9W6M3 whole entry)": "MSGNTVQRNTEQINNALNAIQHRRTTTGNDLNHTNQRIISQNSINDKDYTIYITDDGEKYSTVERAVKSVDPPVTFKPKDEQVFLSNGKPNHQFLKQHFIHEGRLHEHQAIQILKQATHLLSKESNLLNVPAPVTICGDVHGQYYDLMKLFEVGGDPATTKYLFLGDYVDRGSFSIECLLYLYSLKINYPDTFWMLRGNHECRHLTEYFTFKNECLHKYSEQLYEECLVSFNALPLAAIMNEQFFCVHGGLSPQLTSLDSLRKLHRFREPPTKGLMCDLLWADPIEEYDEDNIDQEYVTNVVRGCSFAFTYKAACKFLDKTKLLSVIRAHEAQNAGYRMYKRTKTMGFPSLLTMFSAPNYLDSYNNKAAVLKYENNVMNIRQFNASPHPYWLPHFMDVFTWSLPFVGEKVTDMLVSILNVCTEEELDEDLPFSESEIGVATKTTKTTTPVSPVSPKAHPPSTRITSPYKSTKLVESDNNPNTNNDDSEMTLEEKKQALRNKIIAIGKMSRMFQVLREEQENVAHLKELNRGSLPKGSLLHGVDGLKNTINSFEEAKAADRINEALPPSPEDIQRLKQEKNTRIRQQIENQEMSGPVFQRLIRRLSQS", "experiment": "blockers of CaCl2-induced CDRE-lacZ signaling – S. cerevisiae, luminescence, secondary, dose response (AID 2388);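 also: yeast reporter cells carrying a calcineurin-responsive lacZ construct stimulated with calcium chloride; luminescent beta-galactosidase reporter signal in whole cells rather than isolated phosphatase activity; potency for inhibition where a drop in reporter signal means calcineurin blockade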", "format": "functional, cell-based"}, "[11]": {"target": "Matrix metalloproteinase-14 (Homo sapiens, UniProt P50281)", "experiment": "Dose Response confirmation of uHTS hits for a small molecule inhibitors of MT1-MMP activation in a fluorescence assay set 1.", "format": "functional"}, "[12]": {"target": "T1, Kappa-type opioid receptor", "format": "functional", "remark": "listed apart in the source"}, "[13]": {"test_system": "Streptococcus", "experiment": "GAS UMAA2166 growth inhibition – luminescence, BacTiterGlo, counter-screen for streptokinase expression inhibitor project, dose response (AID 1915);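 also: potency for reduction of bacterial viability or growth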", "format": "functional, organism-based"}, "[14]": {"target": "Beta-galactosidase (Escherichia coli, UniProt Q8VNN2)", "sequence (Q8VNN2 whole entry)": "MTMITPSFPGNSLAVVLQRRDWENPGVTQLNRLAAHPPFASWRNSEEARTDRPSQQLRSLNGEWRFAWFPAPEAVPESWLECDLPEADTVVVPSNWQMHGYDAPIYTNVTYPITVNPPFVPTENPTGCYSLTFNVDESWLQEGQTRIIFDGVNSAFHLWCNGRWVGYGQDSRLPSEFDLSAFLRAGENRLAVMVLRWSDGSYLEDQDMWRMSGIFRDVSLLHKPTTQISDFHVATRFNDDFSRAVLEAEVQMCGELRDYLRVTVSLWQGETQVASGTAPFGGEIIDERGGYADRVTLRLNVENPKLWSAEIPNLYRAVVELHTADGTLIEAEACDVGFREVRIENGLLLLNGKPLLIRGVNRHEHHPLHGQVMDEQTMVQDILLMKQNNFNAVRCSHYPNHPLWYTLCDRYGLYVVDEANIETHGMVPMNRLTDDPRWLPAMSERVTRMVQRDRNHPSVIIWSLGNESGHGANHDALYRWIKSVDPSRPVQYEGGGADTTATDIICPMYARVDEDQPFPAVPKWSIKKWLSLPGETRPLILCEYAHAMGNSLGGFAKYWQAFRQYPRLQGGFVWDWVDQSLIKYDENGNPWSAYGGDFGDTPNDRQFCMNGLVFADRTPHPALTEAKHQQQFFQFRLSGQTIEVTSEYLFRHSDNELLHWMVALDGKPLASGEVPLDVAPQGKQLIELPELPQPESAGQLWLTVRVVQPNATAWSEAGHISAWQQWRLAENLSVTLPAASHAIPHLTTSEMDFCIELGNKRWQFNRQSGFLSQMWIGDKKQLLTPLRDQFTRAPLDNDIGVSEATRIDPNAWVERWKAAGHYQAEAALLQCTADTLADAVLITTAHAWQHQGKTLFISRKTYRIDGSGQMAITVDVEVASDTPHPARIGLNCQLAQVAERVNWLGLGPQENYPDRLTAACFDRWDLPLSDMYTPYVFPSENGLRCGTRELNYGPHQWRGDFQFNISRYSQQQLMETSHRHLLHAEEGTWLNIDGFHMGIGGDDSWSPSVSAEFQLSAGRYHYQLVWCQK", "format": "functional"}, "[15]": {"test_system": "Streptococcus sp. 'group A'", "experiment": "Streptococcus pyogenes SK(-)GAS viability under kanamycin – luminescence, BacTiterGlo, confirmation, counter-screen for streptokinase expression inhibitor project, dose response (AID 1900)", "format": "functional, organism-based"}, "[16]": {"test_system": "Vero", "experiment": "cells", "format": "functional", "conditions": "Chlorocebus sabaeus"}, "[17]": {"target": "COUP transcription factor 2 (Homo sapiens, UniProt P24468)", "sequence (P24468 whole entry)": "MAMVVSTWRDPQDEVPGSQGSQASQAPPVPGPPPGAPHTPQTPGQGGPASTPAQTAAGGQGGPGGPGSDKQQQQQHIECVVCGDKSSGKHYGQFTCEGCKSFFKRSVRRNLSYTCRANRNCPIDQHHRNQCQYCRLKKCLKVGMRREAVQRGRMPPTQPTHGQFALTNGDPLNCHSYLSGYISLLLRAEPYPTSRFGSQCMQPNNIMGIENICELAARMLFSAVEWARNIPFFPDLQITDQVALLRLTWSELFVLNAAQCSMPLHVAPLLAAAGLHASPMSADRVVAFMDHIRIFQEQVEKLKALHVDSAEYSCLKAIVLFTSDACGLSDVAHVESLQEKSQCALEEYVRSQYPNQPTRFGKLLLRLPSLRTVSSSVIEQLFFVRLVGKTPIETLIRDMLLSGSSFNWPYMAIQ", "experiment": "Luminescence-based cell-based high throughput dose response assay to identify inhibitors of COUP-TFII (NR2F2).", "format": "functional"}, "[18]": {"target": "T3, Oxysterols receptor LXR-beta (Homo sapiens, UniProt P55055)", "T3 sequence (P55055 whole entry)": "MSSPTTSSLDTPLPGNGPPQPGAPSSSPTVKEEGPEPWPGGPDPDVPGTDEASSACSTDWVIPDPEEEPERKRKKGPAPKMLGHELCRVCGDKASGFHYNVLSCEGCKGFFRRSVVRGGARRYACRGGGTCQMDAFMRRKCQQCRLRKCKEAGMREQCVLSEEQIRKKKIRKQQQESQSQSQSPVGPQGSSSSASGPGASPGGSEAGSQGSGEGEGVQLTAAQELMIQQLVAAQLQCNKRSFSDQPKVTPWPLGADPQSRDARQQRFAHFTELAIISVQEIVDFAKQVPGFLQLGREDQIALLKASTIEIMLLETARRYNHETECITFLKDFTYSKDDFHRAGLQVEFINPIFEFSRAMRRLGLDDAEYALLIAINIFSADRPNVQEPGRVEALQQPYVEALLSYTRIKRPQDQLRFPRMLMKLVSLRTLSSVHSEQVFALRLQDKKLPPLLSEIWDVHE", "format": "functional, cell-based"}, "[19]": {"target": "Tyrosyl-DNA phosphodiesterase 2 (Homo sapiens, UniProt O95551)", "sequence (O95551 whole entry)": "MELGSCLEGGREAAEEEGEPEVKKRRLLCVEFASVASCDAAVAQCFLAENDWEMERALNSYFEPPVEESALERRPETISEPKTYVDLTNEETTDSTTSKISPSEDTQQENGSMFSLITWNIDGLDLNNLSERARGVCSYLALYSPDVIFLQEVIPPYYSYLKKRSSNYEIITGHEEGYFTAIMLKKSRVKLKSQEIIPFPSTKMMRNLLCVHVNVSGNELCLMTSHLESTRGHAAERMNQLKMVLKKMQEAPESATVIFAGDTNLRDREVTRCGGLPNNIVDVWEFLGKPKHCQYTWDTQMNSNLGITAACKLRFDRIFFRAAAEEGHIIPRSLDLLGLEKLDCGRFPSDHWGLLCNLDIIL", "experiment": "potency against TDP2 phosphodiesterase activity – biochemical, epi absorbance, IC50, dose response (AID 743297)"}, "[20]": {"target": "fMet-Leu-Phe receptor (Homo sapiens, UniProt P21462)", "sequence (P21462 whole entry)": "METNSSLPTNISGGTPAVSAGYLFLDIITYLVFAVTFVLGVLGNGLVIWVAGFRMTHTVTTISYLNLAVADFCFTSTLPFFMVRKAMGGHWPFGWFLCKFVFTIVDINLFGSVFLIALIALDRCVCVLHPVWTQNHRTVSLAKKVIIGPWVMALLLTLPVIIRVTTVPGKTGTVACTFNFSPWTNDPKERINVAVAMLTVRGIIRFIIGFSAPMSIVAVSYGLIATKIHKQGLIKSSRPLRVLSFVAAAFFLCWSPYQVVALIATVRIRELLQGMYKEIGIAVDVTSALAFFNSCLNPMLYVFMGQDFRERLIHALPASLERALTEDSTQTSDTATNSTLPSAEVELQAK", "experiment": "formyl peptide receptor binders – dose response (AID 519)", "format": "functional"}, "[21]": {"target": "FAD-linked sulfhydryl oxidase ALR (Homo sapiens, UniProt P55789)", "sequence (P55789 whole entry)": "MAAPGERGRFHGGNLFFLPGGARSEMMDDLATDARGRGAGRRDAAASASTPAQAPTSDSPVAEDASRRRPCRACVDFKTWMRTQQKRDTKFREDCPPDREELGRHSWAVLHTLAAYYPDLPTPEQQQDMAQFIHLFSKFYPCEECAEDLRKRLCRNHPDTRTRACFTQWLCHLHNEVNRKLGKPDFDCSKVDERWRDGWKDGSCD", "experiment": "ALR-catalysed DTT oxidation blockers – biochemical, H2O2 detection, luminescence, cherry-pick, dose response (AID 493248)"}, "[22]": {"target": "T4, Corticotropin-releasing factor receptor 2/Corticotropin-releasing factor-binding protein (Homo sapiens, UniProt P24387+Q13324)", "T4 sequence (Q13324 whole entry)": "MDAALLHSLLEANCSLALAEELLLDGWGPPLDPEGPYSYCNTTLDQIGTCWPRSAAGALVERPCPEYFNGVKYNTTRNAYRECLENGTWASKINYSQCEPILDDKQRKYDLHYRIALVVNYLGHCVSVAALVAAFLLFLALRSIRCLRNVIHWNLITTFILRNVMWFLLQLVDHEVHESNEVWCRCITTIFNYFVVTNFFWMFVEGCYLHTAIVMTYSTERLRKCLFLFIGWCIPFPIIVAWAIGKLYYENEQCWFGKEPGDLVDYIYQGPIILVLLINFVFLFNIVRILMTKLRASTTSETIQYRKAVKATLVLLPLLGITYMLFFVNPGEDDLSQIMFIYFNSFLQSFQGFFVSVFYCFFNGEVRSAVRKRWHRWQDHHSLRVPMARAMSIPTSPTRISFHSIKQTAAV", "T4 sequence (P24387 whole entry)": "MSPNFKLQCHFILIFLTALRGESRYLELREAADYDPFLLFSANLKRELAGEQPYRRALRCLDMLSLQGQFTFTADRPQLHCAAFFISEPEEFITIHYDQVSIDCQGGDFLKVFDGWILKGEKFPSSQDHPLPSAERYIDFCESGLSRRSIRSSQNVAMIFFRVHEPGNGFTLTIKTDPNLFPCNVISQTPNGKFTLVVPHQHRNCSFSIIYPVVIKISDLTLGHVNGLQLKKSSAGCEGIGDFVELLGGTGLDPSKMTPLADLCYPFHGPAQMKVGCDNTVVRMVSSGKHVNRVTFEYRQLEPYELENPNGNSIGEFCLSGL", "experiment": "Dose Response confirmation of uHTS hits for small molecule antagonists of the CRF-binding protein and CRF-R2 receptor complex.", "format": "functional", "conditions": "read-out: IC50_Mean"}, "[23]": {"target": "T4, Corticotropin-releasing factor receptor 2/Corticotropin-releasing factor-binding protein", "experiment": "activators of CRF receptor 2 with binding protein – uHTS hits, confirmation (AID 602473)", "format": "functional", "conditions": "read-out: EC50_Mean"}, "[24]": {"experiment": "HGIII-sPLA2 enzyme inhibition potency – biochemical, QFRET, IC50, dose response (AID 743457);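 also: green fluorescence rise as the enzyme cleaves BODIPY PC-A2 in liposomes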"}, "[25]": {"target": "Albumin (Bos taurus, UniProt P02769)", "sequence (P02769 whole entry)": "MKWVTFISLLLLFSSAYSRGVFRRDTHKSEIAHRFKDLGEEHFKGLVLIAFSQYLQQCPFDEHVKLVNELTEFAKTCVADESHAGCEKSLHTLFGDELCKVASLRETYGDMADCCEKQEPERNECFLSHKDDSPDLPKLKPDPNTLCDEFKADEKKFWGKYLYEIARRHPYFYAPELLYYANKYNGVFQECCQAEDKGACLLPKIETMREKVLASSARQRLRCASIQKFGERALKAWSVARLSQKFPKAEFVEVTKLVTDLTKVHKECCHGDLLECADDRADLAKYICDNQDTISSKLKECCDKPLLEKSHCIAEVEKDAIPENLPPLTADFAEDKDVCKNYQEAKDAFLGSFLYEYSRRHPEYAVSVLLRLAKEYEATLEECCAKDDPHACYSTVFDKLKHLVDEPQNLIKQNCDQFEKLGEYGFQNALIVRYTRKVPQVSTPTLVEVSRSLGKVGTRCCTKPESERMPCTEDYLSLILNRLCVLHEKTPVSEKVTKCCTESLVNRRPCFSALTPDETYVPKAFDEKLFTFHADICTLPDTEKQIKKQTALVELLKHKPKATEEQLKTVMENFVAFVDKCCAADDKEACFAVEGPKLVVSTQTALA", "experiment": "Counterscreen for inhibitors of T-cell receptor (TCR)-CD3 interaction: Fluorescence-based biochemical high throughput dose response assay to identify inhibitors of T-cell receptor (TCR)-CD3 interaction using a TAMRA-labeled BSA probe.", "format": "functional"}, "[26]": {"experiment": "viability loss in CEM21 cells – cell-based, CellTiter-Glo luminescence, cherry-picked, cytotoxicity control for viral fusion inhibitor project, dose response (AID 652042);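 also: potency for signal decrease meaning cytotoxicity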", "format": "functional"}, "[27]": {"experiment": "OVCAR-3 cell viability loss – plate reader, dry powder samples, PAX8 inhibitor project, dose response (AID 743044)", "format": "functional, cell-based"}, "[28]": {"target": "Paired box protein Pax-8 (Homo sapiens, UniProt Q06710)", "sequence (Q06710 whole entry)": "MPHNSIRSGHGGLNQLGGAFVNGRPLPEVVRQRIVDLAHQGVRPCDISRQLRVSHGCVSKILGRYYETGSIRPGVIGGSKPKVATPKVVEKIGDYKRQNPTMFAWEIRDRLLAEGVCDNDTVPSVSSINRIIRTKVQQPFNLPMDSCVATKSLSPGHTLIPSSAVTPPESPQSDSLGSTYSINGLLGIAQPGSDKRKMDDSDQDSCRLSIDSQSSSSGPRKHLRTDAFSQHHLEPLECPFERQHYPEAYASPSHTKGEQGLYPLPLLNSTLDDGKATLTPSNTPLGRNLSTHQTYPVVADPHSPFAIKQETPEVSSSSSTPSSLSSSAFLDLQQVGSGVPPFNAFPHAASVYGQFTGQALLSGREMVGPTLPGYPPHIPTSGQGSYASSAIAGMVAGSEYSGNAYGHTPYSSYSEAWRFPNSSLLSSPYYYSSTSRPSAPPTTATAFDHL", "experiment": "PAX8 transcriptional activity inhibition in RMG-I – RMG-I cells, luciferase, cherry-pick, dose response (AID 687027);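 also: luciferase reporter driven by Pax8 target thyroperoxidase promoter measured by SteadyGlo luminescence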", "format": "functional, cell-based"}, "[29]": {"experiment": "OVCAR8 cell viability loss – plate reader, dry powder samples, PAX8 project, dose response (AID 743197)", "format": "functional, cell-based", "conditions": "OVCAR-8"}}, "note": "Active and inactive are the calls of the source."}
{"smiles": "O=C(Nc1ccc(N2CCOCC2)cc1)c1cnccn1", "values": [{"measurement": "AC50", "setting": "[1]", "result": "3.9 µM (active)"}, {"measurement": "AC50", "setting": "[2]", "result": "2.09 µM (active)"}, {"measurement": "AC50", "setting": "[3]", "result": "> 52 µM (inactive)"}, {"measurement": "AC50", "setting": "[4]", "result": "4.37 µM (active)"}]}
{"smiles": "COc1ccc(C)cc1N=Nc1ccc(O)c2ncccc12", "values": [{"measurement": "IC50", "setting": "[5]", "result": "> 31.5 µM (inactive)"}, {"measurement": "EC50", "setting": "[6]", "result": "598 nM (active)"}, {"measurement": "AC50", "setting": "[7]", "result": "1.57 µM (active)"}, {"measurement": "EC50", "setting": "[8]", "result": "2.92 µM (active)"}, {"measurement": "EC50", "setting": "[9]", "result": "11.1 µM (active)"}, {"measurement": "EC50", "setting": "[10]", "result": "> 180 µM (inactive)"}, {"measurement": "IC50", "setting": "[11]", "result": "23.8 µM (inactive)"}, {"measurement": "IC50", "setting": "[12]", "result": "> 32", "unit": "µM"}, {"measurement": "EC50", "setting": "[13]", "result": "2.67 µM (active)"}, {"measurement": "EC50", "setting": "[14]", "result": "23.6 µM (active)"}, {"measurement": "EC50", "setting": "[15]", "result": "357 nM (active)"}, {"measurement": "CC50", "setting": "[16]", "result": "5.17 µM (active)"}]}
{"smiles": "Cc1sc(NC(=O)CN2CCOCC2)nc1-c1ccc2c(c1)CCN2S(=O)(=O)c1ccccc1", "values": [{"measurement": "IC50", "setting": "[17]", "result": "8.52 µM (active)"}]}
{"smiles": "CCOc1ccc(-c2c(=O)n(O)c3ccccc3[n+]2[O-])cc1", "values": [{"measurement": "EC50", "setting": "[18]", "result": "> 67.5 µM (inactive)"}]}
{"smiles": "O=C(NC(=S)Nc1ccccc1N1CCCC1)c1ccco1", "values": [{"measurement": "IC50", "setting": "[19]", "result": "> 128 µM (inactive)"}]}
{"smiles": "Cc1ccc(Nc2ccc(C(=O)O)cc2N)cc1", "values": [{"measurement": "Ki", "setting": "[20]", "result": "> 66.7 µM (inactive)"}, {"measurement": "AC50", "setting": "[21]", "result": "246 nM (active)"}, {"measurement": "IC50", "setting": "[22]", "result": "> 47.1 µM (inactive)"}, {"measurement": "EC50", "setting": "[23]", "result": "> 53 µM (inactive)"}]}
{"smiles": "Cc1ccccc1NC(=O)NNC(=O)c1ccc2ccccc2c1O", "values": [{"measurement": "IC50", "setting": "[24]", "result": "> 122 µM (inactive)"}, {"measurement": "IC50", "setting": "[25]", "result": "> 94.2 µM (inactive)"}]}
{"smiles": "Cc1ccc(NC(=O)c2ccc(OCC3CCCO3)cc2)cc1Cl", "note": "(centres undefined)", "values": [{"measurement": "AC50", "setting": "[26]", "result": "50 µM (active)"}]}
{"smiles": "CO[C@H]1CN(C)C(=O)c2cc(NC(=O)c3ccc(-c4ccccc4)cc3)ccc2OC[C@@H](C)NC[C@@H]1C", "values": [{"measurement": "AC50", "setting": "[27]", "result": "44.6 µM (active)"}, {"measurement": "AC50", "setting": "[28]", "result": "22.6 µM (active)"}, {"measurement": "AC50", "setting": "[29]", "result": "58.4 µM (active)"}]}
